Non-standard residues stand in square brackets, D forms with d. Residues, ends and D or L forms follow the SMILES beside them. *: point of attachment. Benzoyl(4-F) = O=C(c1ccc(F)cc1)*; Nle = CCCC[C@H](N)C(=O)O; For = O=C*
The molecules below were run against T1, formylated peptide receptor (FPR) (Homo sapiens, UniProt P21462) (assay: Binding assay/inhibition assay: binding affinity for formylated peptide receptor (FPR), displacement of [125I] Trp-Lys-Tyr-Met-Val-DMet). Details: read-out: Ki (Mean value ± SD).
T1 sequence (P21462 1-350): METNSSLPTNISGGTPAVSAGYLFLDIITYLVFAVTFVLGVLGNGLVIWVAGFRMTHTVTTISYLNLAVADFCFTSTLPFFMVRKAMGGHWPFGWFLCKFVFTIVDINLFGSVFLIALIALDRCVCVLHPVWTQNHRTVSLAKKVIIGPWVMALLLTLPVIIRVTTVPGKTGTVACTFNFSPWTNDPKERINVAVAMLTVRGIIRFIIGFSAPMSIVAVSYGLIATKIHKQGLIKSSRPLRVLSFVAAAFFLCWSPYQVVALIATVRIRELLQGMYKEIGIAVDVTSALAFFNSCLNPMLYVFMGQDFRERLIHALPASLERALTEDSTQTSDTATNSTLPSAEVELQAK
Experimental: Each peptide having a different concentration (DMSO solution, 10 μL), 2 nmol/L [^125I] Trp-Lys-Tyr-Met-Val-DMet (10 μL) as radioligand, and FPR (10 μL) were added to a binding buffer (170 μL) and incubated at 25° C. for 1 hour, followed by collection by filtration (cell harvesters) using a GF/C filter coated with a polylysine buffer. After washing, radioactivity left on the filter was measured using a γ counter. [^125I] Trp-Lys-Tyr-Met-Val-DMet means a positive control having affinity for FPR and was obtained from PerkinElmer Co., Ltd. for use.
*Binding buffer: 50 mmol/L Hepes, pH 7.4, 5 mmol/L MgCl2, 1 mmol/L CaCl2, 0.2% BSA
Wash buffer: 50 mmol/L Hepes, pH 7.4, 500 mmol/L NaCl, 0.1% BSA
Polylysine buffer: Poly-L-lysine hydrobromate 100 mg/wash buffer 100 mL
Ki values in the table were calculated using the following equation (1).
IC50: Calculation from Graph Pad
[L]: Concentration of Radioligand (Adjusted to 0.2 nM)

Compound	Ki [nM]
CCCC[C@H](NC(=O)[C@H](Cc1ccccc1)NC(=O)[C@H](CC(C)C)NC(=O)[C@H](CCSC)NC=O)C(=O)N[C@@H](Cc1ccc(O)cc1)C(=O)N[C@H](CCCCNC(=O)c1ccc(F)cc1)C(=O)N[C@H](CCCCN)C(N)=O [Peptide 5, formyl-Met-Leu-Phe-Nle-Tyr-DLys-ε([^19F]FB)-DLys-NH2] (For-MLF[Nle]Y[dK](Benzoyl(4-F))[dK]-NH2)	0.63 ± 0.14
CCCC[C@H](NC=O)C(=O)N[C@@H](CC(C)C)C(=O)N[C@@H](Cc1ccccc1)C(=O)N[C@@H](CCCC)C(=O)N[C@@H](Cc1ccc(O)cc1)C(=O)N[C@H](CCCCN)C(=O)N[C@H](CCCCN)C(=O)N[C@H](CCCCNC(=O)c1ccc(F)cc1)C(N)=O [Peptide 6, formyl-Nle-Leu-Phe-Nle-Tyr-DLys-DLys-DLys-ε([^19F]FB)-NH2, reference compound] (For-[Nle]LF[Nle]Y[dK][dK][dK](Benzoyl(4-F))-NH2)	21.9 ± 12.7
CCCC[C@H](NC=O)C(=O)N[C@@H](CC(C)C)C(=O)N[C@@H](Cc1ccccc1)C(=O)N[C@@H](CCCC)C(=O)N[C@@H](Cc1ccc(O)cc1)C(=O)N[C@H](CCCCN)C(=O)N[C@H](CCCCNC(=O)c1ccc(F)cc1)C(N)=O [Peptide 4, formyl-Nle-Leu-Phe-Nle-Tyr-DLys-DLys-ε([^19F]FB)-NH2] (For-[Nle]LF[Nle]Y[dK][dK](Benzoyl(4-F))-NH2)	1.22 ± 0.4
CCCC[C@H](NC(=O)[C@H](Cc1ccccc1)NC(=O)[C@H](CC(C)C)NC(=O)[C@H](CCSC)NC=O)C(=O)N[C@@H](Cc1ccc(O)cc1)C(=O)N[C@H](CCCCN)C(=O)N[C@H](CCCCNC(=O)c1ccc(F)cc1)C(N)=O [Peptide 3, formyl-Met-Leu-Phe-Nle-Tyr-DLys-DLys-ε([^19F]FB)-NH2] (For-MLF[Nle]Y[dK][dK](Benzoyl(4-F))-NH2)	0.46 ± 0.07

These reach a lower Ki. Values come first.

Ki [nM]	Compound
0.4 ± 0.36	CCCC[C@H](NC=O)C(=O)N[C@@H](CC(C)C)C(=O)N[C@@H](Cc1ccccc1)C(=O)N[C@@H](CCCC)C(=O)N[C@@H](Cc1ccc(O)cc1)C(=O)N[C@H](CCCCNC(=O)c1ccc(F)cc1)C(N)=O [Peptide 2, formyl-Nle-Leu-Phe-Nle-Tyr-DLys-ε([^19F]FB)-NH2] (For-[Nle]LF[Nle]Y[dK](Benzoyl(4-F))-NH2)
0.04 ± 0.04	CCCC[C@H](NC(=O)[C@H](Cc1ccccc1)NC(=O)[C@H](CC(C)C)NC(=O)[C@H](CCSC)NC=O)C(=O)N[C@@H](Cc1ccc(O)cc1)C(=O)N[C@H](CCCCNC(=O)c1ccc(F)cc1)C(N)=O [Peptide 1, formyl-Met-Leu-Phe-Nle-Tyr-DLys-ε([^19F]FB)-NH2] (For-MLF[Nle]Y[dK](Benzoyl(4-F))-NH2)

From US9044520B2, “Compound accumulating in inflammatory site, diagnostic agent containing the compound in labeled state and its precursor compound for labeling” (Nihon Medi-Physics Co., Ltd., priority 2011, dated 2015)
